Activity calls are given as the source filed them.
Tests used:
[1] = Luminescence Cell-Based Dose Confirmation HTS to Identify Activators of 5'UTR Stem-Loop Driven Alpha-Synuclein mRNA Translation in H4 Neuroglioblastoma Cells. [Related pubchem assays: 1829 (Project Summary), 1814 (Primary HTS)]; format: functional
[2] = system: HEK293; experiment: cells; details: Homo sapiens
[3] = system: HEK293; experiment: cells; details: Homo sapiens; remark: listed apart in the source
[4] = human group III sPLA2 inhibitors, dose response, biochemical, QFRET, IC50 (AID 743457);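 note: green fluorescence rise as the enzyme cleaves BODIPY PC-A2 in liposomes; potency for inhibition of the enzyme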
[5] = Luminescence Cell-Based Dose Response HTS to Identify Activators of Luciferase Translation or Activity in H4 […] Cells. [Related pubchem assays: 1829 (Project Summary), 1814 (Primary HTS)]; format: functional
[6] = molecular target: G-protein coupled receptor 55 (Homo sapiens, UniProt Q9Y2T6); experiment: GPR55 antagonists blocking LPI-driven arrestin recruitment, primary screen, imaging, U2OS, beta-arrestin-GFP, LPI agonist (AID 2013); format: functional;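 note: antagonist potency measured as reduced agonist-driven arrestin aggregation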
[7] = molecular target: T1, Protein RecA (Mycobacterium tuberculosis, UniProt P9WHJ3); experiment: Fluorescence Cell-Free Homogeneous Dose Retest to Identify Inhibitors of RecA-Intein Splicing Activity. [Related pubchem assays (depositor defined):AID2097, AID2223, AID489010, AID492950]; format: functional
T1 sequence (P9WHJ3 whole entry): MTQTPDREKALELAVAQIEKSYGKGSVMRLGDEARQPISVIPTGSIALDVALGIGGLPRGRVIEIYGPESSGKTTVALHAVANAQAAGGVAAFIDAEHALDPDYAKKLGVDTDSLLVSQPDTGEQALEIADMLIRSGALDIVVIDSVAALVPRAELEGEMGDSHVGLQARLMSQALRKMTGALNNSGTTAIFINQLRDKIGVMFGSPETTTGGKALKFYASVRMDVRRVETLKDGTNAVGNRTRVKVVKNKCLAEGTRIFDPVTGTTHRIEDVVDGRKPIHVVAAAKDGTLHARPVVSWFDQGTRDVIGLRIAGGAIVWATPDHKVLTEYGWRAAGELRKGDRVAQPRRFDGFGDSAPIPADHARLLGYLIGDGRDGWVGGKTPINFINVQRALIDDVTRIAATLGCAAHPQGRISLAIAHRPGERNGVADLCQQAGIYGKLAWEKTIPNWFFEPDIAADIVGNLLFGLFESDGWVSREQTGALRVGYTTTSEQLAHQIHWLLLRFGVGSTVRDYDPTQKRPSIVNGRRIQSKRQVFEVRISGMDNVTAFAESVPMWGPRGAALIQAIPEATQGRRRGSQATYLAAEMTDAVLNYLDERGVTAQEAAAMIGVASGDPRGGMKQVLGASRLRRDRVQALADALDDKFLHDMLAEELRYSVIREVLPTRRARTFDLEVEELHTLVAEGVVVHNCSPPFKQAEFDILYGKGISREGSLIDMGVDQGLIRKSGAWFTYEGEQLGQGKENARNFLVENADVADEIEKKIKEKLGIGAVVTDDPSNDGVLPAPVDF

[8] = molecular target: T2, Replicative DNA helicase DnaB (Mycobacterium tuberculosis, UniProt P9WMR3); experiment: DnaB intein splicing inhibitors, dose response, biochemical, cell-free fluorescence (AID 449749); format: functional
T2 sequence (P9WMR3 whole entry): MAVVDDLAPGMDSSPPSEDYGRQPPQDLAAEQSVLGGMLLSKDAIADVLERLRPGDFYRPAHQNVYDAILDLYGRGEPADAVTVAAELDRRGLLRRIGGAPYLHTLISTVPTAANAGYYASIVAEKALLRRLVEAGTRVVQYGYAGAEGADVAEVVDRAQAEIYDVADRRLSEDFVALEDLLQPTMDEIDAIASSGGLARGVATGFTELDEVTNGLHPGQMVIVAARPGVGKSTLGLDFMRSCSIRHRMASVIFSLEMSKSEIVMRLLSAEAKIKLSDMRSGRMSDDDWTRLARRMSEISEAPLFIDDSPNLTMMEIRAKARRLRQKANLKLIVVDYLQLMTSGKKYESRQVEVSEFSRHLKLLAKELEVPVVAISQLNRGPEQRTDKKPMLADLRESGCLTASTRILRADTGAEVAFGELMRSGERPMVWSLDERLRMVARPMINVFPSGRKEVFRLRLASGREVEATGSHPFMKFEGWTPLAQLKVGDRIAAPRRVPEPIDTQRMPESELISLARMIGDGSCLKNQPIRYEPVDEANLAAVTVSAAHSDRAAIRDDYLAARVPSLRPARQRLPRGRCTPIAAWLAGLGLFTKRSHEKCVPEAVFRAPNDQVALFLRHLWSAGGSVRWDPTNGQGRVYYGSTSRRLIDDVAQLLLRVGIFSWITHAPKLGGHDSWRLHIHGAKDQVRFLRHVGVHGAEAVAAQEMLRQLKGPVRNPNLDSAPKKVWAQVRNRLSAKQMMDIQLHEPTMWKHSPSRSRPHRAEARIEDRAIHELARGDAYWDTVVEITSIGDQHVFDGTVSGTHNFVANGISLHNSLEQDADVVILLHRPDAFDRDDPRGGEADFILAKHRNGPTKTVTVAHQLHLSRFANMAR

[9] = system: H4; experiment: Luminescence Cell-Based Dose Response HTS to Identify Activators of 5'UTR Stem-Loop Driven Prion Protein mRNA Translation in H4 Neuroglioblastoma Cells. [Related pubchem assays: 1829 (Project Summary), 1814 (Primary HTS)]; format: functional; details: Homo sapiens
[10] = molecular target: fMet-Leu-Phe receptor (Homo sapiens, UniProt P21462); experiment: FPR ligands, dose response (AID 519); format: functional
[11] = HeLa cell cytotoxicity, dose response, cytotoxicity control, 24 h, plate reader, dry powder (AID 686928); format: functional, cell-based
[12] = system: Streptococcus; experiment: Group A Streptococcus viability loss, dose response, counter-screen for streptokinase expression inhibitor project, luminescence, BacTiterGlo (AID 1915); format: functional, organism-based;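 note: potency for reduction of bacterial viability or growth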
[13] = molecular target: T3, Streptokinase A (Streptococcus pyogenes serotype M1, UniProt P10520); experiment: S. pyogenes streptokinase expression inhibitors, potency, dose response, plasminogen activation absorbance, OD405 (AID 1914); format: functional, Streptococcus pyogenes M1 GAS;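 note: secreted streptokinase activity via plasminogen activation per viability signal from cell pellet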
T3 sequence (P10520 whole entry): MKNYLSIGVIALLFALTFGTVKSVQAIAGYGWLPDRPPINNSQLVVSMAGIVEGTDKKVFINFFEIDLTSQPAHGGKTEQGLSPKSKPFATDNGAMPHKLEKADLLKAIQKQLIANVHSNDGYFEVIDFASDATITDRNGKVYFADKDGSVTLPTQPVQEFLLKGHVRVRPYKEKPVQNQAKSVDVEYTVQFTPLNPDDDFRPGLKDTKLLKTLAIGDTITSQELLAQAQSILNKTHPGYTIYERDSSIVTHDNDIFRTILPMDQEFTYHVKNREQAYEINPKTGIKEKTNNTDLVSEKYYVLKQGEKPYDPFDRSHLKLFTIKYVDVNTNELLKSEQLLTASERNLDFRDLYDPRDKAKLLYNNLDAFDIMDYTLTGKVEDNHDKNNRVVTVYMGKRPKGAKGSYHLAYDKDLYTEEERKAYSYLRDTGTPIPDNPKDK

[14] = system: INS1; experiment: beta cell apoptosis inhibitors, cytokine rescue, dose response, luminescence, retest (AID 449756); format: functional, cell-based; details: Rattus norvegicus;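 note: cell death triggered by IL-1 beta plus TNF-alpha plus IFN-gamma mixture; protective hits raise ATP signal compared with cytokine alone wells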
[15] = system: Streptococcus sp. 'group A'; experiment: growth inhibition of control SK(-) GAS strain, dose response, counter-screen for streptokinase expression inhibitor project, luminescence, kanamycin, BacTiterGlo, confirmation (AID 1900); format: functional, organism-based
[16] = system: HEK293; experiment: inhibitors of LMP1-driven NF-kB reporter, dose response, cell-based, HEK293, luciferase, cherry-pick (AID 588343); format: functional; details: Homo sapiens

Chain of fMet-Leu-Phe receptor (P21462 whole entry): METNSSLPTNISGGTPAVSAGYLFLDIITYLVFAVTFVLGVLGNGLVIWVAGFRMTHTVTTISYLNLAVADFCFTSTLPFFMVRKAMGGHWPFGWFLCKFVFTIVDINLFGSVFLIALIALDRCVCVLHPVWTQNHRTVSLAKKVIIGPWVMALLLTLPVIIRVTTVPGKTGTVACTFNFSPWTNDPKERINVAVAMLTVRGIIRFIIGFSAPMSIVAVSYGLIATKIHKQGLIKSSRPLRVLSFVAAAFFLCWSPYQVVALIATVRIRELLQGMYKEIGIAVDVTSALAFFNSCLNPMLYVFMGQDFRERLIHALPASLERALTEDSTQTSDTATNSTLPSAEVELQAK
Chain of G-protein coupled receptor 55 (Q9Y2T6 whole entry): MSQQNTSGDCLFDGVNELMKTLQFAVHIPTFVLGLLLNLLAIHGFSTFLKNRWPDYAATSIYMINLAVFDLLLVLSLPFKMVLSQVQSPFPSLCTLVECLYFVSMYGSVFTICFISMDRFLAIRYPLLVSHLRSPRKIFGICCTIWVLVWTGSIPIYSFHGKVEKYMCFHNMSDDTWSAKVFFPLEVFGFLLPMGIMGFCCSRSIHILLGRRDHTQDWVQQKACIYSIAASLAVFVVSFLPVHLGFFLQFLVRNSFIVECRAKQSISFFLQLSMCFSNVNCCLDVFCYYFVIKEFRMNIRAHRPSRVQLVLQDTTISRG

CCOC(=O)c1c(CSC(=N)N)n(-c2ccccc2)c2cc(Br)c(OC(C)=O)cc12
EC50 [1]: > 120 µM (not active) | EC50 [2]: > 59.6 µM (inactive) | EC50 [3]: > 59.6 µM (inactive) | IC50 [4]: > 122 µM (inactive) | EC50 [5]: 9.69 µM (active) | IC50 [6]: 3.23 µM (active) | EC50 [7]: 9.76 µM (active) | AC50 [8]: 5.9 µM (active) | EC50 [9]: > 120 µM (not active)

Cn1cc(Cl)c(C(=O)NN=C(S)Nc2cccc(Cl)c2)n1
IC50 [4]: > 122 µM (inactive)

O=C(NC1CCCC1)C1CC1c1ccccc1 (centres undefined)
Ki [10]: > 66.7 µM (inactive)

Cc1ccc2cc3c(NC(=O)c4ccco4)nn(C)c3nc2c1
AC50 [11]: 179 µM (active) | AC50 ([11]; 24 h): 121 µM (active)

Oc1c2c(nc3c(-c4ccc(Cl)cc4)cnn13)CCCC2
EC50 [12]: 9.5 µM (active) | EC50 [13]: > 150 µM (not active) | AC50 [14]: 2.37 µM (active) | EC50 [15]: 3.64 µM (active) | AC50 [16]: 2.89 µM (active) | Ki [10]: > 66.7 µM (inactive)

From ChEMBL document CHEMBL1201862, “PubChem BioAssay data set” (2004)
